Data: PubChem BioAssay AID1959 (Broad Institute, 2009)
Activity calls are given as the source filed them.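 The calls were made as follows: active = growth-inhibition EC50 no more than tenfold above the top tested dose; inconclusive = flat fit between 30% and 70% inhibition, or unreliable fit; inactive = EC50 more than tenfold above the top tested dose.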

Tested on: E. coli NEB5alpha growth, BacTiter-Glo luminescence, 4 h
Test: antibacterial activity against E. coli NEB5alpha – luminescence, counter-screen for MEX-5/POS-1 RNA-binding inhibitor project, dose response (AID 1959);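 also: pUC19-transformed ampicillin-resistant cells grown in LB with ampicillin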

SMILES	EC50
CN(C)c1ccc(N=Cc2c(O)n(CCC3=CCCCC3)c(=O)[nH]c2=O)cc1	> 11 µM (inactive)
COc1ccc(N/C=C\C(=O)c2ccc(C)cc2)cc1OC	> 11 µM (inactive)
CCOC(=O)C1Nc2ccc(C)cc2C2C=CCC12 (configuration not stated)	> 11 µM (inactive)
NS(=O)(=O)c1cc(C(=O)NC2CCSc3ccccc32)ccc1Cl (configuration not stated)	> 11 µM (inactive)
Cc1cc(C)cc(N2C(=O)NC(=O)/C(=C\c3cccn3-c3ccc(Cl)cc3)C2=O)c1	> 11 µM (inactive)
[O-]/C(=C(\C(=S)NCc1ccco1)[n+]1ccccc1)c1ccccc1Br	> 11 µM (inactive)
O=C1C2CC=C(Cl)CC2C(=O)N1CCCCCCN1C(=O)C2CC=C(Cl)CC2C1=O (configuration not stated)	> 11 µM (inactive)
Cn1c(O)c(/C=C2\C=Nc3ccc(Br)cc32)c(=O)n(C)c1=O	> 11 µM (inactive)
CCc1ccc(C(=O)NNC(=O)c2ccc(=O)n(C)n2)cc1	> 11 µM (inactive)
Nc1c(NCCC2=CCCCC2)c(=O)[nH]c(=O)n1Cc1ccccc1	> 11 µM (inactive)
CC1(C)CC(=O)C2=C(C1)OC(N)=C(C#N)C21C(=O)N(CN2CCOCC2)c2ccccc21 (configuration not stated)	> 11 µM (inactive)
COC(=O)C1=NN(C(=O)c2ccc(C)cc2)C(O)(c2ccc(Cl)cc2)C1 (configuration not stated)	> 11 µM (inactive)
CC(=O)N1CCc2c(sc(NC(=O)C3CCCN3S(=O)(=O)c3cccs3)c2C(N)=O)C1 (configuration not stated)	> 11 µM (inactive)
Cc1n[nH]c(C)c1N1C(=O)c2cccc3c(N4CCCCCC4)ccc(c23)C1=O	> 11 µM (inactive)
S=c1[nH]c2ccccc2n2c(=S)[nH]nc12	> 11 µM (inactive)
NC(=S)N=Nc1ccc(NN=C(N)N)cc1	> 11 µM (inactive)
COc1ccc(OC)c(C2Nc3c(Cl)ccc(C(=O)O)c3C3C=CCC32)c1 (configuration not stated)	> 11 µM (inactive)
N#CC(C#N)=Cc1ccc(N2CCOCC2)cc1	> 11 µM (inactive)
Cc1c(CN2CCCCC2)c(O)n(CCCO)c(=O)c1C#N	> 11 µM (inactive)
Cc1cc(/C=C2\SC(=O)N(C)C2=O)c(C)n1-c1cccc(C(=O)O)c1	> 11 µM (inactive)
O=C1CCCC2=C1Sc1ccc(Cl)cc1N2	> 11 µM (inactive)
COC(=O)CCCC1=CC2=CC(=O)C(C)(OC(=O)c3cnc4ccccc4n3)C(=O)C2=CO1 (configuration not stated)	> 11 µM (inactive)
c1coc(-c2nc3ccccc3nc2-c2ccco2)c1	> 11 µM (inactive)
N#CC(C#N)=Cc1ccc(NC(=O)c2ccc(Br)cc2)cc1	> 11 µM (inactive)
CC[C@H](C)/C=C(C)/C=C/C1=CC2=C(Cl)C(=O)[C@@](C)(OC(C)=O)C(=O)C2=CO1	> 11 µM (inactive)

SMILES	EC50
COc1c(O)cccc1[C@@H](O)C1CCN(CCc2ccc(F)cc2)CC1	> 11 µM (inactive)
Cn1cc(/C=C2\C(=O)NC(=O)N(c3ccccc3)C2=O)c2ccccc21	> 11 µM (inactive)
COc1ccc(-c2cc3ccc(OCC(N)=O)cc3oc2=O)cc1OC	> 11 µM (inactive)
O=C(O)C1Nc2c(cccc2C(F)(F)F)C2C=CCC12 (configuration not stated)	> 11 µM (inactive)
ON=C1/C(=N\O)CC2(C/C1=N/O)OCCO2	> 11 µM (inactive)
CCC(C)/C=C(C)/C=C/C1=CC2=C(Cl)C(=O)C(C)(OC(C)=O)C(=O)C2=CO1 (configuration not stated)	> 11 µM (inactive)
CCOn1c(=O)c(-c2cc3ccccc3o2)[n+]([O-])c2ccccc21	> 11 µM (inactive)
Cc1ccc2c(c1)C1C=CCC1C(C(=O)NCCCN1CCOCC1)N2 (configuration not stated)	> 11 µM (inactive)
Cc1ccc(/C=N/Nc2ncnc3nc[nH]c23)cc1	> 11 µM (inactive)
CSc1nncc(/C(C)=N\Nc2ccccc2)n1	> 11 µM (inactive)
COc1cc(OC)c(OC)cc1/C=C1\Oc2cc(OS(C)(=O)=O)ccc2C1=O	> 11 µM (inactive)
CCN1C/C(=C/c2cccs2)c2nc3ccccc3c(C(=O)O)c2C1	> 11 µM (inactive)
CC/C(=C\C=C\[C@@H]1C=C[C@@H]2CCC[C@H]2[C@@H]1C(=O)c1ccc[nH]1)[C@@H]1O[C@@H]([C@@H](C)C(=O)O)CC[C@@H]1C	> 11 µM (inactive)
CCCCOc1cccc(C2C(C(=O)c3ccc(C)o3)=C(O)C(=O)N2c2nnc(C)s2)c1 (configuration not stated)	> 11 µM (inactive)
COc1ccc(C2C(C#N)=C(N)OC3=C2C(=O)CC(C)(C)C3)cc1 (configuration not stated)	> 11 µM (inactive)
Cc1cc(/C=c2\sc3nc4ccccc4n3c2=O)c(C)n1-c1ccc(C(=O)O)cc1	> 11 µM (inactive)
CCN(CC)CCN=Cc1c(O)n(CCc2ccccc2)c(=O)[nH]c1=O	> 11 µM (inactive)
CCOc1ccc(S(=O)(=O)Nc2cc(SCC(=O)O)c(O)c3ccccc23)cc1	> 11 µM (inactive)
Cc1ccccc1Nc1nc(Cl)c(C=O)s1	> 11 µM (inactive)
CC1=CC(=C(C#N)c2nc3ccccc3s2)C=C(C)N1CC1CCCO1 (configuration not stated)	> 11 µM (inactive)
CC(=O)N(C)c1ccc(N=NC2C(=O)N(C(N)=S)N=C2C)cc1 (configuration not stated)	> 11 µM (inactive)
COCCN1CCC(CNCc2c(C(=O)N3CCCCC3)nc3c(C)cccn23)C1 (configuration not stated)	> 11 µM (inactive)
C(=N\Nc1nc2ccccc2[nH]1)/c1ccccn1	> 11 µM (inactive)
O=c1c(O)cccc2cc(O)c(O)c(O)c12	> 11 µM (inactive)
CCOc1ccccc1NC(=O)Nc1ccc(OC)nc1	> 11 µM (inactive)

SMILES	EC50
CCOC(=O)c1cc(-c2ccccc2)sc1NC(=S)Nc1cc(C)ccn1	> 11 µM (inactive)
Cc1ccc(C2c3sc(=O)[nH]c3SC3C(=O)NC(=O)C32)cc1 (configuration not stated)	> 11 µM (inactive)
O=C(O)CCc1ccc(-c2cccs2)n1-c1ccc(C(=O)O)cc1	> 11 µM (inactive)
CC(=O)NCCNc1ccc([N+](=O)[O-])cc1C#N	> 11 µM (inactive)
CCN(CC)c1ccc(/C=C/C(=O)c2ccc(Br)cc2)cc1	> 11 µM (inactive)
Cc1nn2c(N3CCOCC3)c3c(nc2c1-c1ccccc1)CCCC3	> 11 µM (inactive)
Cc1sc(/C=C2\C(=O)ON=C2c2ccccc2)cc1Br	> 11 µM (inactive)
COc1ccc(CCC(=O)Nc2cccc(Cl)c2)cc1	> 11 µM (inactive)
Cc1cccc(N2C(=O)/C(=C/c3ccc(N4CCN(C)CC4)o3)C(=O)NC2=S)c1C	> 11 µM (inactive)
CNC(=O)NC(=O)COC(=O)c1ccc(-n2c(C)ccc2C)cc1	> 11 µM (inactive)
CCC(=O)OC1(C)C(=O)C=C2C=C(c3ccc(C#N)cc3)OC=C2C1=O (configuration not stated)	> 11 µM (inactive)
CN1C(=O)C(=Cc2sc(=O)n(-c3ccccc3)c2N2CCCCC2)C(=O)N(C)C1=O	> 11 µM (inactive)
N#CC1=C(N)OC2=C(C(=O)CC(c3ccccc3)C2)C1c1ccc2c(c1)OCO2 (configuration not stated)	> 11 µM (inactive)
Cc1ccc(/C=C2/C(=O)NC(=O)N(CCc3ccc(F)cc3)C2=O)o1	> 11 µM (inactive)
COc1ccc(N2C(=O)/C(=C/c3ccc(N(C)C)o3)C(=O)NC2=S)cc1	> 11 µM (inactive)
CN1CCc2cc3c(c4c2C1Cc1ccccc1-4)OCO3 (configuration not stated)	> 11 µM (inactive)
Cc1nc(N=Nc2ccc(O)cc2)n[nH]1	> 11 µM (inactive)
Fc1ccc(NCc2cccnc2)cc1F	> 11 µM (inactive)
CCOC(=O)/C=c1\s/c(=C\c2ccc(C#N)cc2)c(=O)n1CC(=O)NCc1ccco1	> 11 µM (inactive)
Cc1ccc(N2C(=O)NC(=O)/C(=C/c3cnn(-c4ccc(C)cc4)c3)C2=O)cc1	> 11 µM (inactive)
Cc1[nH]c2ccccc2c1/C=N/NC(=S)NC(C)C	> 11 µM (inactive)
CCOC(=O)c1ccc(-n2c(C)ccc2C)cc1	> 11 µM (inactive)
N=C1/C(=C\c2ccc(SCc3ccccc3)o2)C(=O)N=C2SC(CC(=O)N3CCOCC3)=NN12	> 11 µM (inactive)
Oc1ccc(C2=CSC3=NCCN23)cc1O	> 11 µM (inactive)
COc1ccc(-n2c(NNC(C)=O)nc3sc4c(c3c2=O)CCCC4)cc1	> 11 µM (inactive)

SMILES	EC50
Cc1[nH]nc(NNC(=O)c2ccccc2)c1[N+](=O)[O-]	> 11 µM (inactive)
CC1=NN(c2cccc(C(=O)O)c2)C(=O)/C1=C\C=C\c1ccco1	> 11 µM (inactive)
O=C(O)c1cccc(-n2cccc2/C=C2/SC(=O)N(CC(=O)N3CCCC3)C2=O)c1	> 11 µM (inactive)
N#CC(C#N)=Cc1ccc(-c2ccccc2)o1	> 11 µM (inactive)
CCOc1ccc2nc3cc(NCc4ccc(OC)cc4)ccc3c(N)c2c1	> 11 µM (inactive)
O=C(O)CCC(=O)N1N=C(c2cccs2)CC1c1cn(-c2ccccc2)nc1-c1ccccc1 (configuration not stated)	> 11 µM (inactive)
O=C1N=C(N2CCOCC2)S/C1=C\c1ccc(-c2ccccc2Cl)o1	> 11 µM (inactive)
Cc1cc(C=O)c(C)n1-c1cc(C(=O)O)cc(C(=O)O)c1	> 11 µM (inactive)
COC(=O)[C@@H]1[C@H]2C[C@H]3c4[nH]c5ccccc5c4CCN3C[C@@H]2CC[C@@H]1O	> 11 µM (inactive)
CC(=O)Nc1ccc(NC(=O)C(C)OC(=O)/C(C#N)=C/c2ccc(N(C)C)cc2)cc1 (configuration not stated)	> 11 µM (inactive)
COC(=O)CCC(=O)OC1(C)C(=O)C=C2C=C(C3CC3)N(c3ccc(CO)cc3)C=C2C1=O (configuration not stated)	> 11 µM (inactive)
O=C(NCc1cccs1)C1CCN(S(=O)(=O)c2ccc(Br)s2)CC1	> 11 µM (inactive)
Cc1c(/C=N/Nc2ccc(F)cc2)c(O)n(C)c(=O)c1C#N	> 11 µM (inactive)
Cc1cc2c3c(c1C)C1(C(=O)N3C(C)(C)CC2C)C(C#N)=C(N)OC2=C1C(=O)CC(C)(C)C2 (configuration not stated)	> 11 µM (inactive)
O=C(Nc1ccccc1)c1nn(-c2ccccc2)c(=O)cc1C(F)(F)F	> 11 µM (inactive)
COC(=O)c1ccc(-n2c(C)cc(/C=N/n3cnnc3)c2C)cc1	> 11 µM (inactive)
Cc1ccc(Cn2c(=N)c(C(=O)NCC3CCCO3)cc3c(=O)n4ccccc4nc32)cc1 (configuration not stated)	> 11 µM (inactive)
Cc1ccc(N=Cc2nc(-c3ccc(C)cc3)oc2O)cc1	> 11 µM (inactive)
Oc1ccc(-c2cn3c(n2)SCC3)cc1O	> 11 µM (inactive)
Cc1cc(C)nc(NNC2=CC(=O)CC(C)(C)C2)n1	> 11 µM (inactive)
CC(C)OCC(O)CN1CCN(CCN2C(=O)c3cccc4cccc(c34)C2=O)CC1 (configuration not stated)	> 11 µM (inactive)
CN1C(=O)/C(=C/C=C/c2ccco2)C(=O)NC1=S	> 11 µM (inactive)
